“And” between values parts separate entries of the source, which are not always exact repeats. Equal values may be shown once. “Also recorded” adds a separate entry of the source. Read-outs that look alike come from different tables or passages of the source.
Key:
[1] = target: T1, P2X4 receptor (Homo sapiens, UniProt Q99571); test: Surface plasmon resonance competitive binding assay; conditions: for experimental binding response unit (RU): validation BX430 vs 5-BDBD, single binders at 1 μM and 1:1 combination, Fig. 4B; for Response Unit (RU): 5-BDBD alone, 1:1 combination, 5 or 1 μM; for type of binding on P2X4 relative to 5-BDBD: experimental 1:1 combination RU compared with theoretical RU values
T1 construct: His tag (N); purchased MyBioSource, Inc (San Diego, CA, USA)
T1 sequence (Q99571 77-338): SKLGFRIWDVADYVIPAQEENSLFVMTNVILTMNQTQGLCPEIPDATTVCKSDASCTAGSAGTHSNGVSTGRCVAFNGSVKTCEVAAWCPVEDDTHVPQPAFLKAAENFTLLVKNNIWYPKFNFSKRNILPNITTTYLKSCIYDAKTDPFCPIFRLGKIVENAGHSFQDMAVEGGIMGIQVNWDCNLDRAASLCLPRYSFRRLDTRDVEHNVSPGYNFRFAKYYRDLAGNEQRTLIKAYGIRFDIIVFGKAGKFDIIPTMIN
Experimental: Recombinant human P2X4 (500 μg/mL stock solution in Dnase free water) was diluted to 40 μg/mL in sodium acetate 4.0. The protein was immobilized on a CM5 chip based on an amine coupling method as previously described with minor modification. Briefly, the immobilization method involved five phases. First, a stable baseline was established, and a response was observed. […] Both binding association and dissociation were identified as ethanolamine hydrochloride (1 M; pH 8.5) deactivated unreacted NHS-esters and removed electrostatically bound ligands with a contact time of 420 s and a flow rate of 10 μL/min. Completion of all five phases indicated successful immobilization of the P2X4 protein on the SPR sensor chip.
A competitive SPR binding assay was designed to narrow down the cannabinoids’ binding site on P2X4. […] Both compounds were dissolved in DMSO at 10 mM and diluted to 10 μM in PBS (20 mM). […] Subsequently, they were diluted to a working concentration of 10 μM using PBS (20 mM) as the diluent. For individual runs, each antagonist was further diluted with the running buffer, composed of PBS (20 mM) with 3 % DMSO, resulting in a final concentration of 1 μM. To evaluate the interaction of both antagonists simultaneously, a 1:1 combination ratio was employed. Glycine, at a pH of 2.5 was utilized as the regeneration buffer. Additionally, solvent correction cycles were incorporated, consisting of eight correction points ranging from 2.5 % to 3.8 % of DMSO content, ensuring accurate data interpretation during the experimental procedure.
Compounds were initially prepared at a concentration of 10 mM in DMSO and subsequently diluted in PBS (20 mM) to either 10 or 2 μM, depending on the binding response unit (RU) observed during the binding screening assays. For individual evaluations, compounds were diluted in a 1:1 combination ratio with the running buffer, PBS (20 mM) + 3 % DMSO, to either 5 or 1 μM.
These mixtures were subsequently diluted to either 5 or 1 μM using the running buffer.
The theoretical non-competitive value was calculated as the sum of the experimental RU values of the cannabinoid and BX430, or the cannabinoid and 5-BDBD. The combined experimental RU value was compared to both the competitive and non-competitive theoretical RU values to determine the type of binding.

[2] = system: P2X4; design: method as in PMID 28588493; conditions: selective non-competitive (allosteric) antagonist of P2X4; cited from earlier work
[3] = target: T1, P2X4 receptor; test: Surface plasmon resonance binding screening assay; conditions: for binding affinity with P2X4 (in words) / RU (Response Units) values compared with theoretical Rmax: SPR screening; for binding affinity with P2X4 (in words) / Kd / koff / kon: 0.4-300 μM; for Kd / koff / kon: SPR Biacore T200, P2X4 immobilized on CM5 chip, 1:1 binding model, n.d. = not detectable; for koff: read-out: Koff (dissociation rate); for kon: read-out: Kon (association rate); for association/dissociation phase with P2X4 (sensorgram, in words): SPR screening sensorgrams, Fig. 3; for RU (Response Units) values compared with theoretical Rmax: attributed to matrix binding effects
[4] = system: human P2X4; conditions: HEK293 cells expressing human P2X4; cited from earlier work
[5] = KD (equilibrium dissociation constant)
[6] = read-out: KD (equilibrium dissociation constant)

Structure (SMILES) | binding affinity with P2X4 (in words) [3] | Kd [3, 5] | koff [3] | kon [3] | other results
CC(C)c1cc(Br)c(NC(=O)Nc2cccnc2)c(Br)c1 [BX430, reference compound] | – | – | – | – | experimental binding response unit (RU) [1]: 22.5 RU; IC50 [2]: 0.54 µM
CCCc1cc(O)c2c(c1)OC(C)(CCC=C(C)C)C=C2 (stereo not drawn) [CBCV, cannabichromevarin] | did not demonstrate any binding affinity | – | – | – | –
CCCCCc1cc(O)c2c(c1)OC1(C)CCC3C1C2C3(C)C (stereo not drawn) [CBL, cannabicyclol] | did not demonstrate any binding affinity | – | – | – | –
CCCCCc1cc2c(c(O)c1C(=O)O)[C@@H]1CC(C)=CC[C@H]1C(C)(C)O2 [Δ^8-THCA-A, Δ^8-trans-tetrahydrocannabinolic acid A] | – | 76 µM and 76.4 µM | 0.0812 s⁻¹ | 1060 M⁻¹ s⁻¹ | association/dissociation phase with P2X4 (sensorgram, in words) [3]: slow association and dissociation phases; RU (Response Units) values compared with theoretical Rmax [3]: higher than the theoretical Rmax
CCCCCCCc1cc(O)c2c(c1)OC(C)(C)C1CCC(C)=CC21 (stereo not drawn) [THCP, Δ^9-tetrahydrocannabiphorol] | did not demonstrate any binding affinity | – | – | – | –
CCCc1cc(O)c(C/C=C(\C)CCC=C(C)C)c(O)c1C(=O)O [CBGVA, cannabigerovarinic acid] | – | – | 0.174 s⁻¹ | 1890 M⁻¹ s⁻¹ | Kd [3, 6]: 92 µM; association/dissociation phase with P2X4 (sensorgram, in words) [3]: slow association and dissociation phases; RU (Response Units) values compared with theoretical Rmax [3]: higher than the theoretical Rmax
CCCCCc1cc(O)c2c(c1)OC(C)(CCC=C(C)C)C=C2 (stereo not drawn) [CBC, cannabichromene] | did not demonstrate any binding affinity | – | – | – | –
CCCc1cc(O)c2c(c1)OC(C)(C)c1ccc(C)cc1-2 [CBV, cannabivarin] | – | 16.4 µM | 0.0405 s⁻¹ | 2470 M⁻¹ s⁻¹ | association/dissociation phase with P2X4 (sensorgram, in words) [3]: slow dissociation phase; Response Unit (RU) ([1]; Fig. 6E: CBV alone): 0.9 RU; type of binding on P2X4 relative to 5-BDBD [1]: competitive P2X4-binders; also recorded: competitive binding
CCCCCc1cc2c(c(O)c1C(=O)O)[C@@H]1C=C(C)CC[C@H]1C(C)(C)O2 [THCA-A, Δ^9-tetrahydrocannabinolic acid A] | – | 117 µM | 0.101 s⁻¹ | 866 M⁻¹ s⁻¹ | association/dissociation phase with P2X4 (sensorgram, in words) [3]: slow association and dissociation phases; RU (Response Units) values compared with theoretical Rmax [3]: higher than the theoretical Rmax
C=C(C)[C@@H]1CCC(C)=C[C@H]1c1c(O)cc(CCCCC)c(C(=O)OC)c1O [CBDAME, cannabidiolic acid methyl ester] | did not demonstrate any binding affinity | – | – | – | –
CCCCc1cc(O)c2c(c1)OC(C)(C)C1CCC(C)=CC21 (stereo not drawn) [THCB, Δ^9-tetrahydrocannabibutol] | did not demonstrate any binding affinity | – | – | – | –
CCCCCc1cc(O)c(C/C=C(\C)CCC=C(C)C)c(O)c1 [CBG, cannabigerol] | did not demonstrate any binding affinity | – | – | – | –
CCCc1cc(O)c(C/C=C(\C)CCC=C(C)C)c(O)c1 [CBGV, cannabigerovarin] | – | – | – | – | association/dissociation phase with P2X4 (sensorgram, in words) [3]: slow dissociation phase
CCCCCc1cc(O)c(C/C=C(\C)CCC=C(C)C)c(OC)c1 [CBGM, cannabigerol monomethyl ether] | did not demonstrate any binding affinity | – | – | – | –
CCCc1cc(O)cc(O)c1C(=O)O [Varinolic acid, varinolic acid] | did not demonstrate any binding affinity | – | – | – | –
CCCCCc1cc(O)c(C/C=C(\C)CCC=C(C)C)c(O)c1C(=O)O [CBGA, cannabigerolic acid] | – | 140 µM and > 10 µM | 0.119 s⁻¹ | 824 M⁻¹ s⁻¹ | Kd [3, 6]: 144 µM; association/dissociation phase with P2X4 (sensorgram, in words) [3]: slow association and dissociation phases
C=C(C)[C@@H]1CCC(C)=C[C@H]1c1c(O)cc(CCCCC)cc1O [CBD, cannabidiol] | – | 1 µM | 0.02 s⁻¹ | 19200 M⁻¹ s⁻¹ | Kd [3, 6]: 1.04 µM; association/dissociation phase with P2X4 (sensorgram, in words) [3]: slow dissociation phase; Response Unit (RU) ([1]; Fig. 6A: CBD alone): 6.9 RU; type of binding on P2X4 relative to 5-BDBD [1]: competitive P2X4-binders; also recorded: competitive binding
CCCCCc1cc(O)c2c(c1)OC(C)(C)C1CCC(CO)=CC21 (stereo not drawn) [11-OH-THC] | – | 6.31 µM | 0.0742 s⁻¹ | 11800 M⁻¹ s⁻¹ | –
CC(C)=CCC/C(C)=C/Cc1c(O)cc(C)c(C(=O)O)c1O [CBGOA, cannabigerorcinic acid] | – | 140 µM and > 10 µM | 0.375 s⁻¹ | 2720 M⁻¹ s⁻¹ | Kd [3, 6]: 138 µM; RU (Response Units) values compared with theoretical Rmax [3]: higher than the theoretical Rmax
O=C1CN=C(c2cccc(Br)c2)c2oc3ccccc3c2N1 [5-BDBD, reference compound] | – | – | – | – | Response Unit (RU) ([1]; Fig. 6A: CBD alone): 5.8 RU; Response Unit (RU) ([1]; Fig. 6E: CBV alone): 6.4 RU; experimental binding response unit (RU) [1]: 34.9 RU; IC50 [4]: […]
C=C(C)[C@@H]1C[C@H](O)C(C)=C[C@H]1c1c(O)cc(CCCCC)cc1O [6α–OH–CBD, 6α-hydroxy cannabidiol] | – | 340 µM and > 10 µM | 0.427 s⁻¹ | 1270 M⁻¹ s⁻¹ | Kd [3, 6]: 337 µM; RU (Response Units) values compared with theoretical Rmax [3]: higher than the theoretical Rmax
C=C(C)C1CCC(C)=CC1c1c(O)cc(CCCCCCC)cc1O (stereo not drawn) [CBDP, cannabidiphorol] | did not demonstrate any binding affinity | – | – | – | –
CCCCCc1cc(O)c2c(c1)OC(C)(C)c1ccc(C)cc1-2 [CBN, cannabinol] | did not demonstrate any binding affinity | – | – | – | –
C=C(C)C1CCC(C)=CC1c1c(O)cc(CCCC)cc1O (stereo not drawn) [CBDB, cannabidibutol] | did not demonstrate any binding affinity | – | – | – | –
C=C(C)[C@@H]1CCC(C)=C[C@H]1c1c(O)cc(CCC)cc1O [CBDV, cannabidivarin] | – | 9.9 µM | 0.12 s⁻¹ | 12100 M⁻¹ s⁻¹ | Kd [3, 6]: 9.91 µM
C=C(C)c1ccc(C)cc1-c1c(O)cc(CCCCC)cc1O [CBND, cannabinodiol] | – | 84 µM | 0.128 s⁻¹ | 1520 M⁻¹ s⁻¹ | Kd [3, 6]: 84.2 µM; RU (Response Units) values compared with theoretical Rmax [3]: higher than the theoretical Rmax
C=C(C)[C@@H]1CCC(C)=C[C@H]1c1c(O)cc(CCCCC)c(C(=O)O)c1O [CBDA, cannabidiolic acid] | did not demonstrate any binding affinity | – | – | – | –

— publication PMC10618793, “Investigating cannabinoids as P2X purinoreceptor 4 ligands by using surface plasmon resonance and computational docking” (Heliyon, 2023)
